From ChEMBL document CHEMBL4393669, “D2 Dopamine Receptor G Protein-Biased Partial Agonists Based on Cariprazine” (J Med Chem, 2019)
The source made the active and inactive calls. No cut-off for these calls is given here.

Assays:
[1] = target: D(2) dopamine receptor (Homo sapiens) (UniProt P14416)
Mus musculus = species: Mus musculus; settings: C57

Chain of D(2) dopamine receptor (Homo sapiens) (P14416 whole entry): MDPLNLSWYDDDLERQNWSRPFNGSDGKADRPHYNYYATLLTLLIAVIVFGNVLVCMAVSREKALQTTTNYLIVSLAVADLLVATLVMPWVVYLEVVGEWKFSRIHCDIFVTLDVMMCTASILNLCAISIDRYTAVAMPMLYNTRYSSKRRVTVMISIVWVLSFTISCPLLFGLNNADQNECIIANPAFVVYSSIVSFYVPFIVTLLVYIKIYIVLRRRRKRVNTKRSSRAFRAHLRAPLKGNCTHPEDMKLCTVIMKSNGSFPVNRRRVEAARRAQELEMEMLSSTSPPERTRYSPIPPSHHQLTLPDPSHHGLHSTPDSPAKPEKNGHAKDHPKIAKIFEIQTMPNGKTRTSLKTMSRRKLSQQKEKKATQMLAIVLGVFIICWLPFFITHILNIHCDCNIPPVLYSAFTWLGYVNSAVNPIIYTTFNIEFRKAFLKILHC

Row | Structure (SMILES) | pEC50 [1] | Occ (Mus musculus)
1 | CN(C)C(=O)N[C@H]1CC[C@H](CN2CCc3ccccc3C2)CC1 | inactive | 
2 | CN(C)C(=O)Nc1ccc(CCN2CCc3ccccc3C2)cc1 | inactive | 
3 | CN(C)C(=O)NCCCCCN1CCc2ccccc2C1 | inactive | 
4 | CN(C)C(=O)N[C@H]1CC[C@H](CCN2CCc3cccc(Cl)c3C2)CC1 |  | Dose-dependent effect
